The source of these data is paper PMC7824787, “Design, Synthesis and In Vitro Investigation of Novel Basic Celastrol Carboxamides as Bio-Inspired Leishmanicidal Agents Endowed with Inhibitory Activity against Leishmania Hsp90” (Biomolecules, 2021).

Like-named read-outs stand apart in the source and are kept apart here. Bounds are passed on as bounds.

The test system of assay [1] is L. infantum promastigotes. Briefly: Antileishmanial activity on L. infantum promastigotes (MTT). The following applies: Leishmania infantum, 72 h, 23 °C, MTT, read-out: Leishmania Promastigotes IC50, L. infantum. The format is cell-based. Here is the method: Promastigote stage of L. infantum (MHOM/TN/80/IPT1, kindly provided by Dr. M. Gramiccia and Dr. T. Di Muccio, ISS, Roma) and L. tropica (MHOM/SY/2012/ISS3130) were cultured in RPMI 1640 medium (EuroClone) supplemented with 15% heat-inactivated fetal calf serum (EuroClone, Milan, Italy), 20 mM HEPES, and 2 mM L-glutamine at 23 °C. The MTT (3-[4.5-dimethylthiazol-2-yl]-2.5-diphenyltetrazolium bromide) method was used to estimate the 50% inhibitory concentration (IC50), with some modifications. Compounds were dissolved in DMSO and then diluted with medium to achieve the required concentrations. Test compounds were placed in 96 wells round bottom microplates and seven serial dilutions made. Amphotericin B was used as the reference antileishmanial drug. Parasites were diluted in complete medium to 5 × 10^6 parasites/mL and 100 μL of the suspension was seeded into the plates and incubated at 23 °C for 72 h. Then 20 μL of MTT solution (5 mg/mL) was added into each well, after 3 h the plates were centrifuged, the supernatants discarded and the resulting pellets dissolved in 100 μL of lysing buffer consisting of 20% (w/v) of a solution of SDS (Sigma), 40% of N,N-dimethylformamide (Merck) in H2O. The absorbance of the obtained solutions was measured at a wavelength of 550 nm with a reference at 650 nm with a microplate spectrophotometer (Synergy 4-Biotek, Milan, Italy) and analyzed with the Gen5® software for data processing.
The results are expressed as IC50, the dose of compound that is necessary to inhibit cell growth by 50%; each IC50 value is the mean ± standard deviation of at least three separate experiments performed in duplicate.

The subject of assay [2] is L. infantum promastigotes. Briefly: Morphological differentiation of Leishmania promastigotes. The class given is cell-based, Leishmania infantum. The following applies: 50 ng/mL, 23 °C, 48 h (Figure 6). Here is the method: L. infantum promastigotes were diluted in complete medium to 4 × 10^7 parasites/mL and 250 µL of the suspension were seeded into the 24 wells plates and incubated at 23 °C in the presence of geldanamycin, CE or compound 2 at the final concentration of 50 ng/mL. Cultures without drugs incubated at 23 °C or at 37 °C were used as negative and positive control, respectively. After 24 or 48 h of incubation, parasite morphology was evaluated by optical microscopy at 100× (Eclipse Ti Series, Nikon, Minato, Tokyo, Japan) on Giemsa stained smears (a mixture of eosin, methylene blue and Azure-B diluted 1:10). The percent of round promastigotes in treated and non-treated cells was determined. Images were taken at the same magnification by using a digital camera (Nikon Digital Sight). About 500 promastigotes were counted in 4 random fields.
The compounds were incubated (23 °C, physiological pH) with L. infantum promastigotes at a sub-IC50 concentration of 50 ng/mL. […] After 24 h and 48 h the presence of round, amastigote-like cells, was monitored (Figure 6). A negative and positive control experiment (NC and PC, Figure 6a,b) were also conducted growing the promastigotes at 23 °C and 37 °C, respectively.

Another assay addresses LbHsp90 (Leishmania braziliensis, UniProt A4HL70). Briefly: LbHsp90 ATPase kinetics (NADH-coupled enzymatic cascade). The format is biochemical. The protocol: The reaction was initiated by the addition of ATP (1 mM) and absorbance changes at 346 nm were monitored for 30 min at 30 °C.
Native LbHsp90 kinetics was measured as described but in the absence of DMSO. Two control experiments were run as follows: • (1) Efficiency of the enzymatic cascade by the used compounds: HEPES buffer (20 mM, pH 7.5) containing KCl (100 mM), MgCl2 (1 mM), ADP (1 mM), NADH (0.18 mM), L-lactate dehydrogenase (4 U mL^−1), phosphoenolpyruvate (1 mM), pyruvate kinase (2.5 U mL^−1); • (2) Interference of the tested compound(s) with the enzymatic cascade: HEPES buffer (20 mM, pH 7.5) containing KCl (100 mM), MgCl2 (1 mM), ADP (1 mM), NADH (0.18 mM), L-lactate dehydrogenase (4 U mL^−1), phosphoenolpyruvate (1 mM), pyruvate kinase (2.5 U mL^−1) and 50 μM compound.
Accordingly, an in vitro assay developed for the evaluation of non-competitive allosteric modulators, which exploits ATPase kinetics data, was used. Briefly, the decrease in absorbance deriving from the continuous oxidation of NADH to NAD^+ produced by a multi-enzymatic cascade triggered by LbHp90-catalyzed ATP hydrolysis is followed spectrophotometrically over the course of 15 min (for details see Appendix B). All the experiments were normalized using the native ATPase activity of LbHsp90 measured in the presence of DMSO, the co-solvent selected for compounds solubilization.
Figure A1 Enzymatic cascade reactions to spectroscopically evaluate L. Hsp90 ATPase kinetics. The ADP produced by ATP hydrolysis during the chaperone cycle reacts with PEP (phosphoenolpyruvate) to form pyruvate in a reaction catalyzed by the enzyme pyruvate kinase (PK), whereby ATP is regenerated. Pyruvate then continues the cascade process and is reduced to lactic acid by action of lactate dehydrogenase (LDH), whereby NADH is oxidized to NAD^+.
LbHsp90 inhibition (%) = (1 − k/knative) * 100 k = ΔAbs/min = extrapolated apparent kinetic constant (Abs/min)

A word on the IC50: it is the point on the concentration scale where inhibition reaches its midpoint. A word on the inhibition: it is the change of the read-out against control, counted positive when it falls.

Chain of LbHsp90 (A4HL70 entry or part of it): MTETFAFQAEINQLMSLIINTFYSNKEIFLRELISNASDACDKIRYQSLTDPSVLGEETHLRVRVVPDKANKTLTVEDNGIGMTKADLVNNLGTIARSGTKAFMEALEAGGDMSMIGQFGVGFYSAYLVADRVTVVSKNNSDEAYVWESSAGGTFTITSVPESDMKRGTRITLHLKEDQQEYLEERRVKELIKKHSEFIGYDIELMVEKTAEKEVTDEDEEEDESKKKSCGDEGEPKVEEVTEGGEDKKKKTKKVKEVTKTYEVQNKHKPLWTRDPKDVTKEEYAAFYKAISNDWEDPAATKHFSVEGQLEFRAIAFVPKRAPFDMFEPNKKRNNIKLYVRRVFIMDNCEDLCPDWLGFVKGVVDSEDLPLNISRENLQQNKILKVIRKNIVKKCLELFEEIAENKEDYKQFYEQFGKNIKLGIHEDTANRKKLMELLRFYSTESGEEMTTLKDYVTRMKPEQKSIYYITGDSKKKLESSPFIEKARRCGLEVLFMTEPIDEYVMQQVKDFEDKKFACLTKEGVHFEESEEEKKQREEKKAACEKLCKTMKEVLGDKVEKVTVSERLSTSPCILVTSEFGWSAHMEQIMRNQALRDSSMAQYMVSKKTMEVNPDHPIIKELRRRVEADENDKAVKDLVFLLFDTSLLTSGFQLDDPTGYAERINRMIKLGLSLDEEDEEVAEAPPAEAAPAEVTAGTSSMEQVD

For `COC1=C2C[C@@H](C)C[C@H](OC)[C@H](O)[C@@H](C)/C=C(\C)[C@H](OC(N)=O)[C@@H](OC)/C=C\C=C(/C)C(=O)NC(=CC1=O)C2=O` [GA, geldanamycin], in assay [1], the IC50 was found to be 140 ± 40 nM. The “round amastigote-like cells (morphological differentiation)” value in assay [2] is around 40%. This molecule gave an inhibition at 10 µM on LbHsp90 (GA dose-response, 10 μM) of 0.1 ± 0.02%. The molecule further registered an inhibition at 15 µM against LbHsp90 (GA dose-response, 15 μM) of 0.2 ± 0.05%. Testing at 20 µM against LbHsp90 (GA dose-response, 20 μM) gave an inhibition of 0.3 ± 0.08%. For the same molecule, the inhibition at 50 µM on LbHsp90 (GA dose-response, 50 μM, read-out: LbHsp90 Inhibition (%)) was 0.7 ± 0.04%; on LbHsp90 (read-out: LbHsp90 Inhibition (%), compound 50 μM, 3.5 μM LbHsp90, 1 mM ATP), below 0.05%. This molecule had an inhibition at 100 µM on LbHsp90 (GA dose-response, 100 μM) of 6.5 ± 0.9%. This molecule also displayed an inhibition at 200 µM at LbHsp90 (GA dose-response, 200 μM) of 30.7 ± 1.2%. Further, at 400 µM the inhibition on LbHsp90 (GA dose-response, 400 μM) was 52.3 ± 0.8%. On LbHsp90 (GA dose-response, 600 μM), this molecule registered an inhibition at 600 µM of 76.9 ± 3%. On LbHsp90 (GA dose-response, 800 μM), this molecule displayed an inhibition at 800 µM of 90.5 ± 2.5%. The molecule also had an inhibition at 1000 µM on LbHsp90 (GA dose-response, 1000 μM (1 mM), 1 mM ATP) of 99 ± 0.9%. On LbHsp90 (GA dose-response, 1200 μM), this molecule displayed an inhibition at 1200 µM above 99%.
